The test concerns the target T1, Cyclic GMP-AMP synthase [147-522] (Homo sapiens, UniProt Q8N884).
T1 construct: 147-522
Nature of the test: Quantification of cGAS Protein Inhibition. The protocol:
The enzyme solution was transferred into the reagent buffer to give a final concentration of 30 nM. […] The reaction plates were then centrifuged at 1000 rpm for 1 minute and incubated at room temperature for 1 h. […] The concentration of cGAMP was measured on a LC-MS/MS system consisting of a THERMO Dionex Ultimate LC system with a high pressure pump, an autosampler, a column heating compartment (Reinach, Switzerland) and a SCIEX Triple Quad 5500 (Framingham, MA, USA) mass spectrometer for detection. The sample plates were centrifuged for 10 minutes at 2000 rpm. Up to three plates were placed in the autosampler for injection. […] An isocratic flow of 1.0 mL/min solvent (60% ACN, 8 mM ammonium acetate, 5 mM ammonium hydroxide, 0.04% acetic acid) was applied and sprayed into the ion source of the mass spectrometers. The MS parameters were optimized based on the properties of the compounds to be detected and run in positive multi-reaction mode (MRM) based on the mass transitions. LC and MS parameters were also optimized to allow for a sample-to-sample measuring time of approximately 75 sec and a run time of 8 hours per 384-well plate. All data were analyzed with Excel; and the dose response curves were generated using the auto fitting function of XLfit.

A word on the IC50: it is the concentration that inhibits the measured activity by half. A lower IC50 goes with greater potency.

T1 sequence (Q8N884 147-522): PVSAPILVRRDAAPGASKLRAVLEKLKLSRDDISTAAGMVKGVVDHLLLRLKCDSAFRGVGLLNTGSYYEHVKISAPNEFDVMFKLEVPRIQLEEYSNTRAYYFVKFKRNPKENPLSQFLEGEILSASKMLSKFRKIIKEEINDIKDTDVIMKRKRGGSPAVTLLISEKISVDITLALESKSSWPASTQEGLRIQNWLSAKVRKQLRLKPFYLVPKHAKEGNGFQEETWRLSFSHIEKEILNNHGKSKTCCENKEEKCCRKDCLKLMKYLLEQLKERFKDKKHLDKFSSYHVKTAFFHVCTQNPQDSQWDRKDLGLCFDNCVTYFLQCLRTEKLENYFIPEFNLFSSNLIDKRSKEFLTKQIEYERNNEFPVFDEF

Regarding `COc1nc2c(-n3ccnc3)c(-c3nnc(C(O)C(F)F)[nH]3)n(C)c2cc1Cl` (stereo unspecified) [US20240051954, Example 21], the IC50 was 121 nM.

For the origin of these results see BindingDB's records for patent US20240051954 (Novartis, 2024).
